Where two headings read alike, the source gives them in different places.
Key:
[1] = target: ERK2 (Homo sapiens (Human), UniProt P28482); experiment: Dundee profiling
[2] = target: EPH-B3 (Homo sapiens (Human), UniProt P54753); experiment: Dundee profiling
[3] = target: EGFR (T790M) (Homo sapiens (Human), UniProt P00533, T790M); experiment: KinomeScan; format: binding; conditions: 1 uM
[4] = target: LOK (Homo sapiens (Human), UniProt O94804); experiment: KinomeScan; format: binding; conditions: 1 uM
[5] = target: TIE2 (Homo sapiens (Human), UniProt Q02763); experiment: Dundee profiling
[6] = target: GST-LRRK2[A2016T](1326-2517) (Homo sapiens (Human), UniProt Q5S007, A2016T); experiment: Nictide peptide kinase assay, 100 μM ATP; format: biochemical; conditions: 20 μM Nictide
Experimental: (§1) Assay procedures are further discussed in Section 4 herein.
(§2) Samples were washed extensively and the incorporation of [γ-32P]ATP into Nictide was quantified by Cerenkov counting. IC50 values were calculated with GraphPad Prism using non-linear regression analysis.

[7] = target: GST-LRRK2[G2019S](1,326-2,527) (Homo sapiens (Human), UniProt Q5S007, G2019S); experiment: Nictide peptide kinase assay, 100 μM ATP; format: biochemical; conditions: 20 μM Nictide
Experimental: as §1, §2

[8] = target: GST-LRRK2[G2019S + A2016T](1,326-2,517) (Homo sapiens (Human), UniProt Q5S007, A2016T/G2019S); experiment: Nictide peptide kinase assay, 100 μM ATP; format: biochemical; conditions: 20 μM Nictide
Experimental: as §1, §2

[9] = target: GST-LRRK2(1,326-2,517) wild-type (Homo sapiens (Human), UniProt Q5S007); experiment: Nictide peptide kinase assay, 100 μM ATP; format: biochemical; conditions: 20 μM Nictide
Experimental: as §1, §2

[10] = target: LRRK2 (Mus musculus (Mouse), UniProt Q5S006); experiment: Pharmacodynamic study, LRRK2 Ser910/Ser935 phosphorylation in mouse kidney, spleen and brain; format: in vivo
LRRK2, sequence (Q5S006 whole entry, looked up): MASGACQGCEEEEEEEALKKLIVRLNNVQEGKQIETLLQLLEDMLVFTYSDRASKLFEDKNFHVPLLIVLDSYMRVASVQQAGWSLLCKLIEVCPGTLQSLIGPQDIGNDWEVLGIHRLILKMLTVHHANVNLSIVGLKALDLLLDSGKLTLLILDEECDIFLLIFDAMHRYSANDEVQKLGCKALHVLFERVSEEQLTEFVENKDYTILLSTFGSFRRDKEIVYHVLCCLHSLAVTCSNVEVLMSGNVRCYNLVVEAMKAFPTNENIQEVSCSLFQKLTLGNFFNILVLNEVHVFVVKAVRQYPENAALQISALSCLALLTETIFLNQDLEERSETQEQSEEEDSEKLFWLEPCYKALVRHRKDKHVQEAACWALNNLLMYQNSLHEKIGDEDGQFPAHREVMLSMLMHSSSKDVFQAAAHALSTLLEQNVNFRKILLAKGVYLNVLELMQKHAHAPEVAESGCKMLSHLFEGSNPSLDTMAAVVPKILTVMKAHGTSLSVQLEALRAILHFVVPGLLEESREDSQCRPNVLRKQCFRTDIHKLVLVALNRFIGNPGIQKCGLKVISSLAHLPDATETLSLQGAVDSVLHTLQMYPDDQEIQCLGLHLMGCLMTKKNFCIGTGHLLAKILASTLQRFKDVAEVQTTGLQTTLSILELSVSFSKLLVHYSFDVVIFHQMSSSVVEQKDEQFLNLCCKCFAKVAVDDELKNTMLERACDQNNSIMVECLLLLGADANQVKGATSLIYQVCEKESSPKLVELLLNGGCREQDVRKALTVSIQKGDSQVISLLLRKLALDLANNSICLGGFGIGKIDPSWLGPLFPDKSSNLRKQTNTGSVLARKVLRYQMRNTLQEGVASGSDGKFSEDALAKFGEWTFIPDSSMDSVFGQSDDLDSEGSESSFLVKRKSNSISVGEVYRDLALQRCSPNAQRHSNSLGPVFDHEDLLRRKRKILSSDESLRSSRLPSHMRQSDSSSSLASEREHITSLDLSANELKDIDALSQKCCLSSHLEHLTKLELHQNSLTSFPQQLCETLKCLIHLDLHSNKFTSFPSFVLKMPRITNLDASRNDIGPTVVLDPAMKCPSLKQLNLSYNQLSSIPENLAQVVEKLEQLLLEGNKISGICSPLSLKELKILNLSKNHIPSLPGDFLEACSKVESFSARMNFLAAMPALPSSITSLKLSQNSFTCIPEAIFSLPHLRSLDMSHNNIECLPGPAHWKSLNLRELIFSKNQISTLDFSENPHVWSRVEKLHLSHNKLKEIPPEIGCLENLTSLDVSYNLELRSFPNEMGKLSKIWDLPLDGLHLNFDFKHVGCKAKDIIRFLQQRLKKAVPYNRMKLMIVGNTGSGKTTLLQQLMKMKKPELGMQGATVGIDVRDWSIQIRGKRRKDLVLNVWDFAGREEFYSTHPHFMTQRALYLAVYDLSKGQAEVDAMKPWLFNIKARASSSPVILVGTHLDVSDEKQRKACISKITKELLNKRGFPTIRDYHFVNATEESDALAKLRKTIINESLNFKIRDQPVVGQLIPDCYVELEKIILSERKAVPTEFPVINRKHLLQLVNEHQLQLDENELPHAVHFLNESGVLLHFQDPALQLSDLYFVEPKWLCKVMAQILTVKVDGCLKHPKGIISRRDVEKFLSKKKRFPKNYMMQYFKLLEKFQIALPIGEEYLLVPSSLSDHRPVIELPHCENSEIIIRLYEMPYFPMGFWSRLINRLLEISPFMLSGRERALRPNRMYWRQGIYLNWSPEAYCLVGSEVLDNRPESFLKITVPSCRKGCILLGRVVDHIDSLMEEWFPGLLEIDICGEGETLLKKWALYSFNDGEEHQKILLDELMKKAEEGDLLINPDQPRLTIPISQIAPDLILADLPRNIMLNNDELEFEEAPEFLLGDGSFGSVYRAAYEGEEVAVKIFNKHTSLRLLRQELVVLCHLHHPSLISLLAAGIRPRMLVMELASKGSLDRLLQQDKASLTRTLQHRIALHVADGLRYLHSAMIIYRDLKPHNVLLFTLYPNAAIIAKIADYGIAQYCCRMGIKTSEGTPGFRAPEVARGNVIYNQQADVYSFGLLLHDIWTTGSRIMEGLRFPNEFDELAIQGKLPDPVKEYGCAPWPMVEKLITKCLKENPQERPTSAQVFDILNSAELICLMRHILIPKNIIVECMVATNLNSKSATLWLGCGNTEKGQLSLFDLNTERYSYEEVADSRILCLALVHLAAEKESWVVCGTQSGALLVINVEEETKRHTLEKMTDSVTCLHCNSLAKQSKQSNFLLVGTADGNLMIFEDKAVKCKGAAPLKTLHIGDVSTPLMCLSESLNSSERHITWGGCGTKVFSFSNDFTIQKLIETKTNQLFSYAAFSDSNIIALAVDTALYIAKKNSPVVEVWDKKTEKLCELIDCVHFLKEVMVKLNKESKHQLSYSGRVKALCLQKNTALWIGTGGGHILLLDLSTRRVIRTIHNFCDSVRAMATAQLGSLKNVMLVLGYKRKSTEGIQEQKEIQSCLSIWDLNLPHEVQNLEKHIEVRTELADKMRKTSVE

[11] = target: CDK11 (Homo sapiens (Human), UniProt Q9BWU1); experiment: KinomeScan; format: binding; conditions: 1 uM
[12] = target: MET (Y1235D) (Homo sapiens (Human), UniProt P08581, Y1235D); experiment: KinomeScan; format: binding; conditions: 1 uM
[13] = target: S6K1 (Homo sapiens (Human), UniProt P23443); experiment: Dundee profiling
[14] = target: CDK8 (Homo sapiens (Human), UniProt P49336); experiment: KinomeScan; format: binding; conditions: 1 uM
[15] = system: PHK; experiment: Dundee profiling
[16] = target: HIPK3 (Homo sapiens (Human), UniProt Q9H422); experiment: Dundee profiling
[17] = target: IRAK1 (Homo sapiens (Human), UniProt P51617); experiment: Dundee profiling
[18] = target: IRR (Homo sapiens (Human), UniProt P14616); experiment: Dundee profiling
[19] = target: DAPK1 (Homo sapiens (Human), UniProt P53355); experiment: Dundee profiling
[20] = target: p38-alpha (Homo sapiens (Human), UniProt Q16539); experiment: KinomeScan; format: binding; conditions: 1 uM
[21] = target: CIT (Homo sapiens (Human), UniProt O14578); experiment: KinomeScan; format: binding; conditions: 1 uM
[22] = target: MAPKAP-K3 (Homo sapiens (Human), UniProt Q16644); experiment: Dundee profiling
[23] = target: PLK2 (Homo sapiens (Human), UniProt Q9NYY3); experiment: KinomeScan; format: binding; conditions: 1 uM
[24] = target: Lck (Homo sapiens (Human), UniProt P06239); experiment: Dundee profiling
[25] = target: PIM2 (Homo sapiens (Human), UniProt Q9P1W9); experiment: Dundee profiling
PIM2, sequence (Q9P1W9 whole entry, looked up, species assumed): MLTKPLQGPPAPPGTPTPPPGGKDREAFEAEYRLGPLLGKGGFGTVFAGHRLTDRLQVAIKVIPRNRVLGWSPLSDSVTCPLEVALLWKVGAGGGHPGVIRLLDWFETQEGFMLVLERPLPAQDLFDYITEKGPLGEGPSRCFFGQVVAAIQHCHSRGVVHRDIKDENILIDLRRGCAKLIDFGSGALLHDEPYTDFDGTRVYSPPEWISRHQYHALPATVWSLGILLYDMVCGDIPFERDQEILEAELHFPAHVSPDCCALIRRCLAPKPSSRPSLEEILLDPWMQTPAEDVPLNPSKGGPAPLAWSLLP

[26] = target: CAMK1 (Homo sapiens (Human), UniProt Q14012); experiment: Dundee profiling
[27] = system: CK2; experiment: Dundee profiling
[28] = target: ULK2 (Homo sapiens (Human), UniProt Q8IYT8); experiment: Dundee profiling
[29] = target: ERK8 (Homo sapiens (Human), UniProt Q8TD08); experiment: Dundee profiling
ERK8, sequence (Q8TD08 whole entry, looked up, species assumed): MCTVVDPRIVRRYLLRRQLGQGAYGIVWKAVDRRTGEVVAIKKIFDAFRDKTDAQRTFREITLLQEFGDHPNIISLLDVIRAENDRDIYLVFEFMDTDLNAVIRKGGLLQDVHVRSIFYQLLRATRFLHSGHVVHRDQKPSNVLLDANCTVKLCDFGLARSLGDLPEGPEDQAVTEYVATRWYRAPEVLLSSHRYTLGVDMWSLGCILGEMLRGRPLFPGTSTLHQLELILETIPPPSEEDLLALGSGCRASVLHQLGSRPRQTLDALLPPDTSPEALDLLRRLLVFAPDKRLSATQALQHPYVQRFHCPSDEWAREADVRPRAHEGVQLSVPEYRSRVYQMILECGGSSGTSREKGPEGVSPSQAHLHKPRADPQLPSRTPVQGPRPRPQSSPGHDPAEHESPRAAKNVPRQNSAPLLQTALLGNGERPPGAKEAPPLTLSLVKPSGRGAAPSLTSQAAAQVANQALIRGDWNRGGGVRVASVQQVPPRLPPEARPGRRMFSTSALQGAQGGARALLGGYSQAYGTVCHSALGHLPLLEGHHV

[30] = target: CDK2 (Homo sapiens (Human), UniProt P24941); experiment: KinomeScan; format: binding; conditions: 1 uM
[31] = target: MPSK1 (Homo sapiens (Human), UniProt O75716); experiment: Dundee profiling
[32] = target: SNARK (Homo sapiens (Human), UniProt Q9H093); experiment: KinomeScan; format: binding; conditions: 1 uM
[33] = target: MINK1 (Homo sapiens (Human), UniProt Q8N4C8); experiment: Dundee profiling
MINK1, sequence (Q8N4C8 whole entry, species assumed): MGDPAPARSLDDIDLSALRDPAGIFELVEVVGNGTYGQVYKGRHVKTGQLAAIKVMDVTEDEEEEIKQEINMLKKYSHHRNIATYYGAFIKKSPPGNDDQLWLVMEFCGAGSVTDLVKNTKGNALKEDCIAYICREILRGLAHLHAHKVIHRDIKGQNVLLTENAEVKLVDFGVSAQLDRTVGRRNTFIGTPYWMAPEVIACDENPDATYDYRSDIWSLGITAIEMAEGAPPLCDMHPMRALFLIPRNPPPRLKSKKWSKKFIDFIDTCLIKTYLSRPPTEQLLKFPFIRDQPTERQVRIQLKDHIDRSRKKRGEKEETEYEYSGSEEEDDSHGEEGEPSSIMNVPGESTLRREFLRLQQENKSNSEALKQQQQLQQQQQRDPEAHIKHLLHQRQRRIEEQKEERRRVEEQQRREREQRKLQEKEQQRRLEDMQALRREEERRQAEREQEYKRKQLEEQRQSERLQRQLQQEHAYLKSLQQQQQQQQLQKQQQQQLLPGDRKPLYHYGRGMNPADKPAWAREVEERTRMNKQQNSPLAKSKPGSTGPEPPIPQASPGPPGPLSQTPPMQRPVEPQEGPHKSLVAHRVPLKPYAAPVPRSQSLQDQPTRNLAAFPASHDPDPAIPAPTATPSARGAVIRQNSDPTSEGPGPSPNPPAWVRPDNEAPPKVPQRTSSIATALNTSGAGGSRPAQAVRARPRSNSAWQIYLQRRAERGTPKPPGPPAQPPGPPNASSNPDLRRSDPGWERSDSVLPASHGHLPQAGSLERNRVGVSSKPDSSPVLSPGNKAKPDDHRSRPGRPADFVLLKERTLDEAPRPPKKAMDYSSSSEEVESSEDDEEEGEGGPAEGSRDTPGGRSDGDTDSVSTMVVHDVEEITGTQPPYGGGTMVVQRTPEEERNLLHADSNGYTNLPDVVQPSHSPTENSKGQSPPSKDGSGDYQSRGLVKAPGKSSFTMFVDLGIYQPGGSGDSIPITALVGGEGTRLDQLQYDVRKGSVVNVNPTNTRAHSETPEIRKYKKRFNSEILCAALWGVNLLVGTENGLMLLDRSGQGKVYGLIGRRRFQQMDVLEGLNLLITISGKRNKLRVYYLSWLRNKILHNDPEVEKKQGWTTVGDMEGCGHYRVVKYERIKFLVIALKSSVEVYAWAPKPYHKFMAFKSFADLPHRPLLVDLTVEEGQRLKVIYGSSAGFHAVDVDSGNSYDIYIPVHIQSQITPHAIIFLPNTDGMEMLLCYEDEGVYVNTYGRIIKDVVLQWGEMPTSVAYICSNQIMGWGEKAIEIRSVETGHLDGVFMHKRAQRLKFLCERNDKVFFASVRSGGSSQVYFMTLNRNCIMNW

[34] = read-out: percent remaining enzymatic activity, I1, 1 μM
[35] = read-out: percent remaining enzymatic activity, I10

ERK2, sequence (P28482 whole entry, looked up, species assumed): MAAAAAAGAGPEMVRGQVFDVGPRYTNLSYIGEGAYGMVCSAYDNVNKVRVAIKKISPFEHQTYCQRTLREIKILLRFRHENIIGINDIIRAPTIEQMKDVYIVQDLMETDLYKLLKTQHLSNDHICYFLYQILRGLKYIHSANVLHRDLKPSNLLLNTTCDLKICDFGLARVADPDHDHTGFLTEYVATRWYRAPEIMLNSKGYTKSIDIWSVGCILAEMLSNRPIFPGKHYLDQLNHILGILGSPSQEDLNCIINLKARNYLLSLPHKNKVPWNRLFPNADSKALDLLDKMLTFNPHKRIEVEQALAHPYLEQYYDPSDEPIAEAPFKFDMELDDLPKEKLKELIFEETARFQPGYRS

`CNc1nc(Nc2ccc(C(=O)N3CCOCC3)cc2OC)nc2[nH]cc(Cl)c12` [Compound 18, (4-((5-chloro-4-(methylamino)-7H-pyrrolo[2,3-d]pyrimidin-2-yl)amino)-3-methoxyphenyl)(morpholino)methanone] was tested. Which remaining activity at 1 µM [1, 34] did it give?
Its remaining activity at 1 µM is 94%.

And the remaining activity at 1 µM [1, 35]?
The remaining activity at 1 µM was 71%.

What about the “percent remaining enzymatic activity” value ([2]; I1, 1 μM) of the same compound?
The value was 92%.

And the remaining activity at 1 µM ([2]; read-out: percent remaining enzymatic activity)?
Its remaining activity at 1 µM is 92%.

What about the KinomeScan value [3] of the same compound?
The KinomeScan value was 97.

And the KinomeScan value [4]?
Its KinomeScan value is 100.

What about the remaining activity at 1 µM [5, 34] of the same compound?
The remaining activity at 1 µM was 104%.

What about the remaining activity at 1 µM [5, 35] of the same compound?
Its remaining activity at 1 µM is 94%.

And the IC50 [6]?
Its IC50 is 0.0477 µM.

What about the IC50 [7] of the same compound?
The IC50 was 0.0022 µM.

What about the IC50 [8] of the same compound?
The IC50 was 0.0198 µM.

And the IC50 [9]?
Its IC50 is 0.0066 µM.

And the “inhibition of LRRK2 Ser935 phosphorylation in brain” value ([10]; 10 mg/kg)?
The value was “only partial inhibition in brain”.

And the “inhibition of LRRK2 Ser935 phosphorylation in tissues” value ([10]; 30 mg/kg)?
The value was “near complete inhibition in all tissues”.

What about the “dephosphorylation of Ser935 of LRRK2 in kidney, spleen and brain” value ([10]; 100 mg/kg, intraperitoneal) of the same compound?
Its value is “near complete dephosphorylation of Ser935 of LRRK2”.

And the KinomeScan value [11]?
Its KinomeScan value is 63.

What about the KinomeScan value [12] of the same compound?
The KinomeScan value was 100.

What about the remaining activity at 1 µM [13, 34] of the same compound?
The remaining activity at 1 µM was 106%.

What about the remaining activity at 1 µM [13, 35] of the same compound?
The remaining activity at 1 µM was 102%.

What about the KinomeScan value [14] of the same compound?
The KinomeScan value was 74.

And the “percent remaining enzymatic activity” value ([15]; I1, 1 μM)?
The value was 13%.

And the “percent remaining enzymatic activity” value ([15]; I10)?
The value was 1%.

What about the remaining activity at 1 µM [16, 34] of the same compound?
The remaining activity at 1 µM was 106%.

And the remaining activity at 1 µM [16, 35]?
The remaining activity at 1 µM was 93%.

What about the remaining activity at 1 µM [17, 34] of the same compound?
The remaining activity at 1 µM was 109%.

And the remaining activity at 1 µM [17, 35]?
Its remaining activity at 1 µM is 92%.

What about the remaining activity at 1 µM [18, 34] of the same compound?
The remaining activity at 1 µM was 31%.

And the remaining activity at 1 µM [18, 35]?
The remaining activity at 1 µM was 10%.

What about the remaining activity at 1 µM [19, 34] of the same compound?
Its remaining activity at 1 µM is 21%.

What about the remaining activity at 1 µM [19, 35] of the same compound?
The remaining activity at 1 µM was 5%.

What about the KinomeScan value [20] of the same compound?
Its KinomeScan value is 96.

What about the KinomeScan value [21] of the same compound?
Its KinomeScan value is 92.

And the remaining activity at 1 µM [22, 34]?
The remaining activity at 1 µM was 97%.

And the remaining activity at 1 µM [22, 35]?
Its remaining activity at 1 µM is 84%.

And the KinomeScan value [23]?
The KinomeScan value was 100.

And the remaining activity at 1 µM [24, 34]?
Its remaining activity at 1 µM is 97%.

And the remaining activity at 1 µM [24, 35]?
The remaining activity at 1 µM was 111%.

And the remaining activity at 1 µM [25, 34]?
The remaining activity at 1 µM was 95%.

What about the remaining activity at 1 µM [25, 35] of the same compound?
Its remaining activity at 1 µM is 82%.

What about the remaining activity at 1 µM [26, 34] of the same compound?
Its remaining activity at 1 µM is 80%.

And the remaining activity at 1 µM [26, 35]?
Its remaining activity at 1 µM is 34%.

What about the “percent remaining enzymatic activity” value ([27]; I1, 1 μM) of the same compound?
The value was 94%.

And the “percent remaining enzymatic activity” value ([27]; I10)?
The value was 70%.

And the remaining activity at 1 µM [28, 34]?
Its remaining activity at 1 µM is 110%.

And the remaining activity at 1 µM [28, 35]?
The remaining activity at 1 µM was 95%.

What about the remaining activity at 1 µM [29, 34] of the same compound?
The remaining activity at 1 µM was 108%.

And the remaining activity at 1 µM [29, 35]?
The remaining activity at 1 µM was 71%.

What about the KinomeScan value [30] of the same compound?
Its KinomeScan value is 95.

What about the remaining activity at 1 µM [31, 34] of the same compound?
Its remaining activity at 1 µM is 113%.

What about the remaining activity at 1 µM [31, 35] of the same compound?
The remaining activity at 1 µM was 106%.

And the KinomeScan value [32]?
Its KinomeScan value is 100.

What about the remaining activity at 1 µM [33, 34] of the same compound?
Its remaining activity at 1 µM is 95%.

And the remaining activity at 1 µM [33, 35]?
The remaining activity at 1 µM was 68%.

Source: US10913744B2, “LRRK2 inhibitors and methods of making and using the same” (Dana-Farber Cancer Institute, Inc., priority 2015, dated 2021)
